# In paper PMC4685510, “A Cell Biologist’s Field Guide to Aurora Kinase Inhibitors” (Frontiers in Oncology, 2015):
# Where two headings read alike, the source gives them in different places.
# Key:
# Test in all cases: biochemical
# Assay type in all cases: biochemical
# [1] = target: 363 human kinases (including Aurora A/B/C) (Homo sapiens, UniProt Q16288); conditions: TRKC; for remaining activity at 0.1 µM: 100 nM
# Text: (§1) However, the Aurora A/B selectivity ratios derived from our in vitro and in vivo data can be compared to prioritize inhibitors.
# [2] = target: 363 human kinases (including Aurora A/B/C) (Homo sapiens, UniProt Q9H2G2); conditions: SLK/STK2; for remaining activity at 0.1 µM: 100 nM; for remaining activity at 0.1 µM / remaining activity at 0.5 µM: read-out: % Enzyme Activity (relative to DMSO controls)
# Text: as §1
# [3] = target: 363 human kinases (including Aurora A/B/C) (Homo sapiens, UniProt P07949); conditions: RET; for remaining activity at 0.1 µM: 100 nM; for remaining activity at 0.1 µM / remaining activity at 0.5 µM: read-out: % Enzyme Activity (relative to DMSO controls)
# Text: as §1
# [4] = target: T1, 363 human kinases (including Aurora A/B/C) (Homo sapiens, UniProt Q15835); conditions: GRK1; for remaining activity at 0.1 µM: 100 nM; for remaining activity at 0.1 µM / remaining activity at 0.5 µM: read-out: % Enzyme Activity (relative to DMSO controls)
# T1 sequence (Q15835 1-563): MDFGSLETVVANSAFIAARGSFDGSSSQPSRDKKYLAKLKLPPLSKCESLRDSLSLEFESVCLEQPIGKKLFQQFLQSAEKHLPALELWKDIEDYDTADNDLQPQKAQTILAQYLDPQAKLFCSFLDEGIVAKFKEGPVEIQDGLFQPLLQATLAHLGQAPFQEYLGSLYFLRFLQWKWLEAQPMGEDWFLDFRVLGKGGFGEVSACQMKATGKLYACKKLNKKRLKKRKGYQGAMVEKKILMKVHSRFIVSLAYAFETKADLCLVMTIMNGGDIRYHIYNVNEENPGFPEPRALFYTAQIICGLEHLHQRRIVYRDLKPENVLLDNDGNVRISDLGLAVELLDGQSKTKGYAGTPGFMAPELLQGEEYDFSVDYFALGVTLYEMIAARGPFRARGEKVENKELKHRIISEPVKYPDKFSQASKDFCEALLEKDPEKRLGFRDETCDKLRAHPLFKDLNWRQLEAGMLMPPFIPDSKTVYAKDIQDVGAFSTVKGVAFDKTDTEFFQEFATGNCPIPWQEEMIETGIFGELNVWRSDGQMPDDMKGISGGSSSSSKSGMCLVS
# Text: as §1
# [5] = target: 363 human kinases (including Aurora A/B/C) (Homo sapiens, UniProt P04049); conditions: RAF1; for remaining activity at 0.1 µM: 100 nM; for remaining activity at 0.1 µM / remaining activity at 0.5 µM: read-out: % Enzyme Activity (relative to DMSO controls)
# 363 human kinases (including Aurora A/B/C) (Homo sapiens, UniProt P04049), sequence (P04049 whole entry): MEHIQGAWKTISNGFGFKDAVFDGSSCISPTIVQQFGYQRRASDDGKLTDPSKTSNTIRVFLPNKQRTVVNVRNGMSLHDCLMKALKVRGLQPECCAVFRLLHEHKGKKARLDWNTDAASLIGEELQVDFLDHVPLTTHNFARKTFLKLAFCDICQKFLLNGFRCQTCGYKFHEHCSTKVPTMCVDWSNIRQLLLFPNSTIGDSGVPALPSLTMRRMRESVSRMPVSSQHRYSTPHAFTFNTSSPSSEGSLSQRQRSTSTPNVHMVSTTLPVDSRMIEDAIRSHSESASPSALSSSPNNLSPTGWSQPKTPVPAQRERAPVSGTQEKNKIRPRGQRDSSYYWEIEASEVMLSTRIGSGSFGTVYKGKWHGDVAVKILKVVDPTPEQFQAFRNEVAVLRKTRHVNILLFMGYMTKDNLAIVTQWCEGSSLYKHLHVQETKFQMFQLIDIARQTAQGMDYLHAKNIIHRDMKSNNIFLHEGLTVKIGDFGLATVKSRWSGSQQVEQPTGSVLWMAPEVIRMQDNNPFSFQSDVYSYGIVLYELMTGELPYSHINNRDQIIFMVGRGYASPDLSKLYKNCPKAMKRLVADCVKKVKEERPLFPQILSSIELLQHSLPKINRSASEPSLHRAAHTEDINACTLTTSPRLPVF
# Text: as §1
# [6] = target: 363 human kinases (including Aurora A/B/C) (Homo sapiens, UniProt Q9Y5S2); conditions: MRCKb/CDC42BPB; for remaining activity at 0.1 µM: 100 nM; for remaining activity at 0.1 µM / remaining activity at 0.5 µM: read-out: % Enzyme Activity (relative to DMSO controls)
# 363 human kinases (including Aurora A/B/C) (Homo sapiens, UniProt Q9Y5S2), sequence (Q9Y5S2 whole entry): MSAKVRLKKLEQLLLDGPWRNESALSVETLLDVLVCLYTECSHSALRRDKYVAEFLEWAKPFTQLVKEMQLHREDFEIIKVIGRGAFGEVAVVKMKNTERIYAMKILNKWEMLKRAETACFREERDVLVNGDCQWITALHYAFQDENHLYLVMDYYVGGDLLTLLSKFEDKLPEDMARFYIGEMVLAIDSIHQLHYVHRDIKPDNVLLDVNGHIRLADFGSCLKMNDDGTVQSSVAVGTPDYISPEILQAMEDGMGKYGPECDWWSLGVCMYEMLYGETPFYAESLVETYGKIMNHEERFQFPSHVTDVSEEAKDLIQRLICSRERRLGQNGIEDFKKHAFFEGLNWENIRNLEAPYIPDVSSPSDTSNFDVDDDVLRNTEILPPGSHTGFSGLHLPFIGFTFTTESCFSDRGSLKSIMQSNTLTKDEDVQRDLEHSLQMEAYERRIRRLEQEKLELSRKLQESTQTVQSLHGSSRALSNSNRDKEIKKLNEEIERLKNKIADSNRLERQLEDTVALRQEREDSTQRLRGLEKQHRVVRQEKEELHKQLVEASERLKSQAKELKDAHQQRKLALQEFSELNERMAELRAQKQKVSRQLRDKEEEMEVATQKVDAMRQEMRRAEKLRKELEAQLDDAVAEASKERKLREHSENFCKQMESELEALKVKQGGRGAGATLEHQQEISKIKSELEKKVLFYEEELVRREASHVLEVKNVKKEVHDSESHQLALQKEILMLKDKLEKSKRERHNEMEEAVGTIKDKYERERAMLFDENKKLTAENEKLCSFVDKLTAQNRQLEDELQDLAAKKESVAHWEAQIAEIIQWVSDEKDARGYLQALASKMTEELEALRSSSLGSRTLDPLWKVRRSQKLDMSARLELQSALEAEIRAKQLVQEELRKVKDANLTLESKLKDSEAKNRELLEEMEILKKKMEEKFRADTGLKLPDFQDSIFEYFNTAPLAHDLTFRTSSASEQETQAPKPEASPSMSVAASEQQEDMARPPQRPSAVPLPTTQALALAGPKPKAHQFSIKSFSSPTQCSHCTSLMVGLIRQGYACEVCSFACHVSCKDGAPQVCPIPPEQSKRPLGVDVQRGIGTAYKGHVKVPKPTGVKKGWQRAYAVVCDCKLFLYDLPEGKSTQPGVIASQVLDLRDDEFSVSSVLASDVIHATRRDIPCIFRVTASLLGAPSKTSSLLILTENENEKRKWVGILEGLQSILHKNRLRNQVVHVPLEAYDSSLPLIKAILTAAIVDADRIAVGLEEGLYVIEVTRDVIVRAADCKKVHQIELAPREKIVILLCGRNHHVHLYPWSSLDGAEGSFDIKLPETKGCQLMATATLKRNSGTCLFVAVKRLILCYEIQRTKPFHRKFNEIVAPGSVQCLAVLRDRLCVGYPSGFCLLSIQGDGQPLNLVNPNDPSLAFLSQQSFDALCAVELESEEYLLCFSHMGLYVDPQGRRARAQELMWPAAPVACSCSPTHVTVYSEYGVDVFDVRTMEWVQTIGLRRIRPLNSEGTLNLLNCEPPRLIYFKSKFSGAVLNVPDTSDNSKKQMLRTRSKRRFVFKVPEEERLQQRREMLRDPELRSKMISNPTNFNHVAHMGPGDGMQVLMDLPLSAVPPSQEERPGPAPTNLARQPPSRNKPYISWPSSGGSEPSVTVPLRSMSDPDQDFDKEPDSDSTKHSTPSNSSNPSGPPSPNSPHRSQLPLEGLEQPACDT
# Text: as §1
# [7] = target: 363 human kinases (including Aurora A/B/C) (Homo sapiens, UniProt P06213); conditions: IR; for remaining activity at 0.1 µM: 100 nM; for remaining activity at 0.1 µM / remaining activity at 0.5 µM: read-out: % Enzyme Activity (relative to DMSO controls)
# Text: as §1
# [8] = target: 363 human kinases (including Aurora A/B/C) (Homo sapiens, UniProt P08581); conditions: c-MET, [ATP] 30 µM; for remaining activity at 0.1 µM: 100 nM; for remaining activity at 0.1 µM / remaining activity at 0.5 µM: read-out: % Enzyme Activity (relative to DMSO controls)
# Text: as §1
# [9] = target: T2, 363 human kinases (including Aurora A/B/C) (Homo sapiens, UniProt O15146); conditions: MUSK; for remaining activity at 0.1 µM: 100 nM; for remaining activity at 0.1 µM / remaining activity at 0.5 µM: read-out: % Enzyme Activity (relative to DMSO controls)
# T2 sequence (O15146 24-869): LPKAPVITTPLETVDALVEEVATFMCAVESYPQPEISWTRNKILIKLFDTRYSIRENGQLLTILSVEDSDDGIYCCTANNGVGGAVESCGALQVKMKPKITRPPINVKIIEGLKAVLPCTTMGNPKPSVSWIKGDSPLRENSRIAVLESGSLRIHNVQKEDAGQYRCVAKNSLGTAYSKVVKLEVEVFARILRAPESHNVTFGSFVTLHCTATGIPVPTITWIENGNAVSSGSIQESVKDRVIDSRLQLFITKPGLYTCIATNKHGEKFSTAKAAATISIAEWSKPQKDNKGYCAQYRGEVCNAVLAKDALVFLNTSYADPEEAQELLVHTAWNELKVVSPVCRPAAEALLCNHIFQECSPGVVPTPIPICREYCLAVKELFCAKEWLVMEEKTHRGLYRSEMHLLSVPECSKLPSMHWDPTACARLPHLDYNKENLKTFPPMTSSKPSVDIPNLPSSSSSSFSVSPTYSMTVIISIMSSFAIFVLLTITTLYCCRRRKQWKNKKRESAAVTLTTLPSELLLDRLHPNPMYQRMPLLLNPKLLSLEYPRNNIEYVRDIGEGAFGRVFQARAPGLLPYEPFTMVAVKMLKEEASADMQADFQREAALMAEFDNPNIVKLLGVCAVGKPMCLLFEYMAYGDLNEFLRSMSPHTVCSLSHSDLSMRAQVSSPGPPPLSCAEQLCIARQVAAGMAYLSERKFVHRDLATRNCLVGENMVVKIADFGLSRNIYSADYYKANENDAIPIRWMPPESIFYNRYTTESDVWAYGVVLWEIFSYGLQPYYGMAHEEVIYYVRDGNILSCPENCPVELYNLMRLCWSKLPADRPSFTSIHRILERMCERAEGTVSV
# Text: as §1
# [10] = target: 363 human kinases (including Aurora A/B/C) (Homo sapiens, UniProt Q9UEW8); conditions: STK39/STLK3; for remaining activity at 0.1 µM: 100 nM; for remaining activity at 0.1 µM / remaining activity at 0.5 µM: read-out: % Enzyme Activity (relative to DMSO controls)
# Text: as §1
# [11] = target: 363 human kinases (including Aurora A/B/C) (Homo sapiens, UniProt P50750); conditions: [ATP] 10 µM; for remaining activity at 0.1 µM: 100 nM; for remaining activity at 0.1 µM / remaining activity at 0.5 µM: read-out: % Enzyme Activity (relative to DMSO controls); for remaining activity at 0.5 µM / % Enzyme Activity (relative to DMSO controls): 500 nM
# 363 human kinases (including Aurora A/B/C) (Homo sapiens, UniProt P50750), sequence (P50750 whole entry): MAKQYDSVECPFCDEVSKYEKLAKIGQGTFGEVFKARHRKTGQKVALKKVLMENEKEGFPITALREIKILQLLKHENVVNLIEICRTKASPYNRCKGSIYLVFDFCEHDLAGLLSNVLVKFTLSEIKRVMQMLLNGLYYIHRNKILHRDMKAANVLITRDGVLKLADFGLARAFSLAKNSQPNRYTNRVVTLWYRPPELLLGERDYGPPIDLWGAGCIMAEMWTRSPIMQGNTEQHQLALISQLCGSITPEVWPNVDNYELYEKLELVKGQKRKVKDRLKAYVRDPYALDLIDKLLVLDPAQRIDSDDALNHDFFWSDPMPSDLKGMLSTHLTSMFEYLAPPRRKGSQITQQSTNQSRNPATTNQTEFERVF
# Text: as §1
# [12] = target: T3, 363 human kinases (including Aurora A/B/C) (Homo sapiens, UniProt O14965); conditions: [ATP] 2.5 µM; for remaining activity at 0.1 µM: 100 nM
# T3 sequence (O14965 1-403): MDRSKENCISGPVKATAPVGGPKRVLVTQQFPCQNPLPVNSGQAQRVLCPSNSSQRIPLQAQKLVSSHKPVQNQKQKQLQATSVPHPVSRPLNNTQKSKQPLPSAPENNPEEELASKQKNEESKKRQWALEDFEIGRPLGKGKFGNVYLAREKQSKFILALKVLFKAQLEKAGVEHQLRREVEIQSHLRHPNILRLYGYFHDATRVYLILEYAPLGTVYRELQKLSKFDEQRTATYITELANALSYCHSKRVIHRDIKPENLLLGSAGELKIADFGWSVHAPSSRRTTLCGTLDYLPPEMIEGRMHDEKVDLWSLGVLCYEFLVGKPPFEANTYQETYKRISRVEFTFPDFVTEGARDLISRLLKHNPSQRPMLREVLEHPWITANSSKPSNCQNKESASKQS
# Text: as §1
# [13] = target: 363 human kinases (including Aurora A/B/C) (Homo sapiens, UniProt P07333); conditions: FMS; for remaining activity at 0.1 µM: 100 nM; for remaining activity at 0.1 µM / remaining activity at 0.5 µM: read-out: % Enzyme Activity (relative to DMSO controls)
# 363 human kinases (including Aurora A/B/C) (Homo sapiens, UniProt P07333), sequence (P07333 20-972): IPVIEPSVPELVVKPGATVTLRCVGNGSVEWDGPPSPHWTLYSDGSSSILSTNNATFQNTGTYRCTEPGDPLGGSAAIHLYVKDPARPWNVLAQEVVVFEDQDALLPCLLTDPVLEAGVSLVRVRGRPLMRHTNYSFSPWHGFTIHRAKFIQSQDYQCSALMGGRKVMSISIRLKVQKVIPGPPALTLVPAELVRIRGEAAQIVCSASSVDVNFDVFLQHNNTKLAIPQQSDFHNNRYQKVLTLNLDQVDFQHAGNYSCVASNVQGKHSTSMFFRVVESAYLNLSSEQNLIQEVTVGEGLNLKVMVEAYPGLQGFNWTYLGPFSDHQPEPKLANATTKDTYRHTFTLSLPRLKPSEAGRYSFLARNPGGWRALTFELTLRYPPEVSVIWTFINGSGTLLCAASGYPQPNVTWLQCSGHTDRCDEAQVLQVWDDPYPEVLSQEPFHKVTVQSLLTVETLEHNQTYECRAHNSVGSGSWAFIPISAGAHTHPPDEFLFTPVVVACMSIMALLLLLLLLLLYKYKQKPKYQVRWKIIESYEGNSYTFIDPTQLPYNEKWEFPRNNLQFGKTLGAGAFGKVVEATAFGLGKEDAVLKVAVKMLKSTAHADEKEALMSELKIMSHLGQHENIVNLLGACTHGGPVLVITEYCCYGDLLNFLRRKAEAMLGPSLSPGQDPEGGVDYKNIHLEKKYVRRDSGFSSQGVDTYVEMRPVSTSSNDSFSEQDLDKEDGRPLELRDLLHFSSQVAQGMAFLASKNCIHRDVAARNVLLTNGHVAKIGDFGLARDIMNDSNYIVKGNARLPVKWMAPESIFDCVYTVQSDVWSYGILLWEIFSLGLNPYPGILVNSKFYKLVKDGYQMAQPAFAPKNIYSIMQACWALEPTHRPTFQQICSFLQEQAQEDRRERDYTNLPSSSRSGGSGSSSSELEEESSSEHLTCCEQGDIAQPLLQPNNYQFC
# Text: as §1
# [14] = read-out: % Enzyme Activity (relative to DMSO controls)
# 363 human kinases (including Aurora A/B/C) (Homo sapiens, UniProt Q16288), sequence (Q16288 32-839): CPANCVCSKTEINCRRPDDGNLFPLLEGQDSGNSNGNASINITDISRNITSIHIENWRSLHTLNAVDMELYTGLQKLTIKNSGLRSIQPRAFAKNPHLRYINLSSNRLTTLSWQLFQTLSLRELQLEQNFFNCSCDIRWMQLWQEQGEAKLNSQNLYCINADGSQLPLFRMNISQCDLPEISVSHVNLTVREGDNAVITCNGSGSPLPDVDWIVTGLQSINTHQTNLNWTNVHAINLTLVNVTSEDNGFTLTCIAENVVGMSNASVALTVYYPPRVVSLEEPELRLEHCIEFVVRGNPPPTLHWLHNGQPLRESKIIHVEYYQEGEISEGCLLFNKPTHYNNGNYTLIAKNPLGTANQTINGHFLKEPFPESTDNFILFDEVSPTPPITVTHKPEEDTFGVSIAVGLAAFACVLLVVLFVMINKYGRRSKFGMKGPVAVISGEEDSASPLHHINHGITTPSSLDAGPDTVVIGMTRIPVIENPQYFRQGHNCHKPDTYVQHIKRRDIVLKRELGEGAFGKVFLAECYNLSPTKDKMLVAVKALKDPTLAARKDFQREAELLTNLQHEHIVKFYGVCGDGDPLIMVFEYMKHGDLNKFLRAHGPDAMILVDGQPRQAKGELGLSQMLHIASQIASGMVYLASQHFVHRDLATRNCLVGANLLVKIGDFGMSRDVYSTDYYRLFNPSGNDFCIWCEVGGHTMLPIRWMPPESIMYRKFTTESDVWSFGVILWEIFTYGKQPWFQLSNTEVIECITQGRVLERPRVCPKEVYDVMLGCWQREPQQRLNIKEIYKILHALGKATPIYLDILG
structure (smiles),measurement,setting,value
CCn1cc(-c2ccnc3[nH]c(-c4cccc(CN(C)C)c4)cc23)c(-c2ccc(NC(=O)N(C)C)cc2)n1 [GSK1070916],remaining activity at 0.1 µM,[1]; [14],78.6%
same,remaining activity at 0.1 µM,[2],95.2%
same,remaining activity at 0.1 µM,[3],97.8%
same,remaining activity at 0.1 µM,[4],95.1%
same,remaining activity at 0.1 µM,[5],100%
same,remaining activity at 0.1 µM,[6],103%
same,remaining activity at 0.1 µM,[7],97.8%
same,remaining activity at 0.1 µM,[8],84.8%
same,remaining activity at 0.1 µM,[9],96%
same,remaining activity at 0.1 µM,[10],100%
same,remaining activity at 0.1 µM,[11]; CDK9/cyclin K,102%
same,remaining activity at 0.1 µM,[11]; CDK9/cyclin T1,91.5%
same,remaining activity at 0.1 µM,"[12]; read-out: % Enzyme Activity (relative to DMSO controls), Aurora A",25.9%
same,remaining activity at 0.1 µM,[13],80.2%
O=C(O)[C@]1(Cc2cccc(Nc3nccs3)n2)CC[C@@H](Oc2cccc(Cl)c2F)CC1 [MK-5108],remaining activity at 0.1 µM,[1]; [14],0.99%
same,remaining activity at 0.1 µM,[2],53.5%
same,remaining activity at 0.5 µM,[2]; 500 nM,16.7%
same,remaining activity at 0.1 µM,[3],17.4%
same,remaining activity at 0.5 µM,[3]; 500 nM,3.79%
same,remaining activity at 0.1 µM,[4],99%
same,remaining activity at 0.5 µM,[4]; 500 nM,106%
same,remaining activity at 0.1 µM,[5],97.7%
same,remaining activity at 0.5 µM,[5]; 500 nM,94.8%
same,remaining activity at 0.1 µM,[6],90%
same,remaining activity at 0.5 µM,[6]; 500 nM,104%
same,remaining activity at 0.1 µM,[7],98.3%
same,remaining activity at 0.5 µM,[7]; 500 nM,80.5%
same,remaining activity at 0.1 µM,[8],74.5%
same,remaining activity at 0.5 µM,[8]; 500 nM,50.3%
same,remaining activity at 0.1 µM,[9],104%
same,remaining activity at 0.5 µM,[9]; 500 nM,71.9%
same,remaining activity at 0.1 µM,[10],105%
same,remaining activity at 0.5 µM,[10]; 500 nM,97.4%
same,remaining activity at 0.1 µM,[11]; CDK9/cyclin K,94%
same,remaining activity at 0.5 µM,[11]; CDK9/cyclin K,106%
same,remaining activity at 0.1 µM,[11]; CDK9/cyclin T1,124%
same,remaining activity at 0.5 µM,[11]; CDK9/cyclin T1,115%
same,remaining activity at 0.1 µM,"[12]; Aurora A, read-out: % Enzyme Activity (relative to DMSO controls)",2.38%
same,remaining activity at 0.1 µM,[13],78.2%
same,remaining activity at 0.5 µM,[13]; 500 nM,51.9%
O=C(c1cccc(Cl)c1F)N1CCN(Cc2cccc(Nc3nccs3)n2)CC1 [MK-8745],% Enzyme Activity (relative to DMSO controls),[1]; 500 nM,3.01%
same,remaining activity at 0.5 µM,"[1]; 500 nM, read-out: % Enzyme Activity (relative to DMSO controls)",3.12%
same,% Enzyme Activity (relative to DMSO controls),[2]; 500 nM,77.19%
same,remaining activity at 0.5 µM,[2]; 500 nM,77.7%
same,% Enzyme Activity (relative to DMSO controls),[3]; 500 nM,84.03%
same,remaining activity at 0.5 µM,[3]; 500 nM,84.5%
same,% Enzyme Activity (relative to DMSO controls),[4]; 500 nM,98.09%
same,remaining activity at 0.5 µM,[4]; 500 nM,101%
same,% Enzyme Activity (relative to DMSO controls),[5]; 500 nM,93.98%
same,remaining activity at 0.5 µM,[5]; 500 nM,95.6%
same,% Enzyme Activity (relative to DMSO controls),[6]; 500 nM,102.30%
same,remaining activity at 0.5 µM,[6]; 500 nM,102%
same,% Enzyme Activity (relative to DMSO controls),[7]; 500 nM,89.30%
same,remaining activity at 0.5 µM,[7]; 500 nM,91.1%
same,% Enzyme Activity (relative to DMSO controls),[8]; 500 nM,76.29%
same,remaining activity at 0.5 µM,[8]; 500 nM,77.2%
same,% Enzyme Activity (relative to DMSO controls),[9]; 500 nM,94.70%
same,remaining activity at 0.5 µM,[9]; 500 nM,95.3%
same,% Enzyme Activity (relative to DMSO controls),[10]; 500 nM,98.73%
same,remaining activity at 0.5 µM,[10]; 500 nM,99.8%
same,% Enzyme Activity (relative to DMSO controls),[11]; CDK9/cyclin K,108.88%
same,remaining activity at 0.5 µM,[11]; CDK9/cyclin K,109%
same,% Enzyme Activity (relative to DMSO controls),[11]; CDK9/cyclin T1,190.89%
same,remaining activity at 0.5 µM,[11]; CDK9/cyclin T1,198%
same,% Enzyme Activity (relative to DMSO controls),"[12]; Aurora A, 500 nM",0.37%
same,remaining activity at 0.5 µM,"[12]; Aurora A, 500 nM, read-out: % Enzyme Activity (relative to DMSO controls)",0.55%
same,% Enzyme Activity (relative to DMSO controls),[13]; 500 nM,92.34%
same,remaining activity at 0.5 µM,[13]; 500 nM,95%
